From publication PMC6973011, “Stafia‐1: a STAT5a‐Selective Inhibitor Developed via Docking‐Based Screening of in Silico O‐Phosphorylated Fragments” (Chemistry (Weinheim an Der Bergstrasse, Germany), 2019)
Changes are numbered by the printed parent chain.

Tests used:
Type in all cases: binding
STAT5a Trp566Arg = biological target: T1, STAT5a Trp566Arg (Homo sapiens, UniProt P42229, W566R); experiment: Fluorescence polarization assay, point mutant STAT5a Trp566Arg
T1 construct: made in house
T1 sequence (P42229 1-794 W566R): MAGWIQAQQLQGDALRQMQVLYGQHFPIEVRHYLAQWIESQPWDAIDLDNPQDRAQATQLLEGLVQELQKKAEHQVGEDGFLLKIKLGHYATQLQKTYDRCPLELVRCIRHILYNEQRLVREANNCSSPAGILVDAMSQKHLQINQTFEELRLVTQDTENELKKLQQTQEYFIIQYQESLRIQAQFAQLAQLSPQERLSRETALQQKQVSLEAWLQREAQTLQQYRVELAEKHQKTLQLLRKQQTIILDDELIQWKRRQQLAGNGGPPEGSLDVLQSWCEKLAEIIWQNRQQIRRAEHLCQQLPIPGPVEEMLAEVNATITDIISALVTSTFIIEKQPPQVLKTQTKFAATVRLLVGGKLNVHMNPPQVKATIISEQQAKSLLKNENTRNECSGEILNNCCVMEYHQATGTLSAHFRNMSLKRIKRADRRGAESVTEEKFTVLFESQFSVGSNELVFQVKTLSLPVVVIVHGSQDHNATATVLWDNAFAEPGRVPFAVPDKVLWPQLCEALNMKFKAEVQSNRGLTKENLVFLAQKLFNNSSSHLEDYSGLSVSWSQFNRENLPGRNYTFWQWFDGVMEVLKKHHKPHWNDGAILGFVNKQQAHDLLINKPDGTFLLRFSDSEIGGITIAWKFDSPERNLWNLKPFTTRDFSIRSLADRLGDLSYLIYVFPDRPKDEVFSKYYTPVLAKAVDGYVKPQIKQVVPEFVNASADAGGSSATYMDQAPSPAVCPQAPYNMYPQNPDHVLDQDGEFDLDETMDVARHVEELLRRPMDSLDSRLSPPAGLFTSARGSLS

STAT5b Arg566Trp = biological target: T2, STAT5b Arg566Trp (Homo sapiens, UniProt P51692, R566W); experiment: Fluorescence polarization assay, point mutant STAT5b Arg566Trp; conditions: FP assay
T2 construct: made in house
T2 sequence (P51692 1-787 R566W): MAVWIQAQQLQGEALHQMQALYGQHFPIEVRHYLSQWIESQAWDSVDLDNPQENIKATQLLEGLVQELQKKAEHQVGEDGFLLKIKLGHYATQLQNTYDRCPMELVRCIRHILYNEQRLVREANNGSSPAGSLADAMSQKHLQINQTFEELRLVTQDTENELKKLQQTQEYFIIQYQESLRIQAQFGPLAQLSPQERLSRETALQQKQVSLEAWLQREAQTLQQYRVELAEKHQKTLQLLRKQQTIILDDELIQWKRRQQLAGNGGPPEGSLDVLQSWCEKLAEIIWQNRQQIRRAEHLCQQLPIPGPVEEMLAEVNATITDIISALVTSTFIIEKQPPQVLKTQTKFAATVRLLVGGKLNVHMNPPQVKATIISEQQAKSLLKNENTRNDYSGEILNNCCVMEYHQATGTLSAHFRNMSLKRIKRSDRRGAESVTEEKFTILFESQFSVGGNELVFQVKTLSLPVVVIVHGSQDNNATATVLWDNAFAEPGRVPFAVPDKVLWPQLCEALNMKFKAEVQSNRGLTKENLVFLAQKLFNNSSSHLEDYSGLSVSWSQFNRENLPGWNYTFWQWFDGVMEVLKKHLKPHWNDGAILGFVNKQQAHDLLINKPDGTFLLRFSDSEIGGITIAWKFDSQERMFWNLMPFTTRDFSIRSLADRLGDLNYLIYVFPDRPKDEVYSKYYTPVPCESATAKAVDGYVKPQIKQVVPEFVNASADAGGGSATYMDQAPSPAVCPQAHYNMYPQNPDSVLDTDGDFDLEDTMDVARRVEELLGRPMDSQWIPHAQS

[1] = biological target: T3, STAT5b Gln636Pro/Met639Asn/Phe640Leu/Met644Lys/Asn664Ser/Tyr679Phe (STAT5b‐6M) (Homo sapiens, UniProt P51692, F640L/M639N/M644K/N664S/Q636P/Y679F); experiment: Fluorescence polarization assay, mutant STAT5b-6M
T3 construct: made in house
T3 sequence (P51692 1-787 Q636P/M639N/F640L/M644K/N664S/Y679F): T2 sequence (P51692 1-787 R566W) with W566R, Q636P, M639N, F640L, M644K, N664S, Y679F

[2] = FP assay, double-purified protein

In the case of `COc1cc(-c2cc(OP(=O)(O)O)cc(-c3cc(OC)c(OC)c(OC)c3)c2)cc(OC)c1OC` [Compound 20], the IC50 (STAT5a Trp566Arg; [2]) is reported as 155 ± 15 µM, the Ki (STAT5a Trp566Arg; [2]) is reported as 74 ± 7 µM and the “reduction of activity against STAT5a Trp566Arg as compared to wild-type STAT5a” value (STAT5a Trp566Arg; FP assays) is reported as 7 fold. The inhibition at 200 µM (STAT5b Arg566Trp) was 43 ± 7%, the inhibition at 200 µM ([1]; FP assay, 200 µM) was 46 ± 8% and the “activity against STAT5b-6M lower than activity against wild-type STAT5a” value ([1]; FP assays) was “approximately 10 fold”.
